Read-outs that look alike come from different tables or passages of the source.
Columns and labels:
MATE1 = biological target: T1, MATE1 (Homo sapiens, UniProt Q96FL8); assay: Uptake ratio in MATE1-overexpressing HEK293 cells vs empty vector (2.5 μM, 1 min, HPLC-MS/MS); format: cell-based
T1 sequence (Q96FL8 1-570): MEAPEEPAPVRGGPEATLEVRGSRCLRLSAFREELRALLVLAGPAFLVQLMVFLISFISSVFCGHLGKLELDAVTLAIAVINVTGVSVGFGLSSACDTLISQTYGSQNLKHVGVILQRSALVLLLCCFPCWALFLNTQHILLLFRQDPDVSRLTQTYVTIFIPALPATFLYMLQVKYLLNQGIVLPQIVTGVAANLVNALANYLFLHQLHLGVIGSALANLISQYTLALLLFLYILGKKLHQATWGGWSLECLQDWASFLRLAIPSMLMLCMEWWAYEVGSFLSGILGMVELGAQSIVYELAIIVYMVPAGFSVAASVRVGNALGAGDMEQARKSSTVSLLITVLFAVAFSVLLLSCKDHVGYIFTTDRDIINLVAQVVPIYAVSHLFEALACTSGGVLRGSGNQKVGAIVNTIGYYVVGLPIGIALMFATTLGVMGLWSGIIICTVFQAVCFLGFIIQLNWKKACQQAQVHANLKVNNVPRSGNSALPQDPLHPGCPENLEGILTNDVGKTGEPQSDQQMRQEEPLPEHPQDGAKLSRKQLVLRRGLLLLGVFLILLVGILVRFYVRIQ

MATE2K = MATE2K (Homo sapiens, UniProt Q86VL8); assay: Uptake ratio in MATE2K-overexpressing HEK293 cells vs empty vector (2.5 μM, 1 min, HPLC-MS/MS); format: cell-based
[1] = fold uptake over empty vector, 2.5 μM, 1 min
[2] = uptake ratio MATE1-overexpressing vs empty-vector HEK293 cells, 2.5 μM, 1 min, mean
[3] = uptake ratio MATE2K-overexpressing vs empty-vector HEK293 cells, 2.5 μM, 1 min, mean
[4] = fold uptake over empty vector, 2.5 μM, 1 min, listed as reproterol

MATE2K, sequence (Q86VL8 1-566 isoform Q86VL8-3): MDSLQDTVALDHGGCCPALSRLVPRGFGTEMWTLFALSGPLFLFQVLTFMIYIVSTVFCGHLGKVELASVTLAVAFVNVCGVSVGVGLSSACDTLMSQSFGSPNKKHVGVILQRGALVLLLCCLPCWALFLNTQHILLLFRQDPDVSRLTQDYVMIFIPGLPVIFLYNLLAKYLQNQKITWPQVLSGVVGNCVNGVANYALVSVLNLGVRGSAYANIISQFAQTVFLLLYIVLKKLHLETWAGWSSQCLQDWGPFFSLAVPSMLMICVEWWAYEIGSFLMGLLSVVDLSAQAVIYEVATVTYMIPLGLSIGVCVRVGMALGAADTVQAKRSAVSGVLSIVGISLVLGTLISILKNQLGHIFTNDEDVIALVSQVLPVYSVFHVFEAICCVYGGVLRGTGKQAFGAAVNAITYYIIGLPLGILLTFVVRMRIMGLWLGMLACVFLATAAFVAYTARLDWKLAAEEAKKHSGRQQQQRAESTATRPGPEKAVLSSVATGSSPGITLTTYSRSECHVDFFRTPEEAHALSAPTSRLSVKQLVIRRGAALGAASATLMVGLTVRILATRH

| MATE1 ratio (MATE1; [1]) | MATE2K ratio (MATE2K; [1]) | MATE1 (MATE1; [2]) | MATE2 (MATE2K; [3]) | Compound | also measured |
| --- | --- | --- | --- | --- | --- |
| 0.92 | 1.03 | – | – | C1CNCCN1 [Piperazine] | – |
| 1.08 | 0.89 | – | – | Nc1cccc2c1C(=O)N(C1CCC(=O)NC1=O)C2=O (stereo not drawn) [Pomalidomide] | – |
| 5.01 | 1.62 | – | – | CC(C)NC[C@H](O)COc1ccc(O)cc1 [Prenalterol] | – |
| 5.54 | 3.98 | – | – | CC(C)NC(=N)NC(=N)Nc1ccc(Cl)cc1 [Proguanil] | MATE1 ratio in this study (MATE1; Table S1, 2.5 μM, 1 min): 5.54; MATE2K ratio in this study (MATE2K; Table S1, 2.5 μM, 1 min): 3.98 |
| – | – | 1.16 | 1.04 | CC(C)NCC(O)COc1cccc2ccccc12 [Propranolol (R), Propranolol] | – |
| – | – | 1.13 | 0.96 | CC(C)NCC(O)COc1cccc2ccccc12 [Propranolol (S), Propranolol] | – |
| 0.97 | 1.14 | 0.97 | 1.14 | Cc1ncc(CO)c(C=O)c1O [Pyridoxal] | – |
| 1.17 | 1.10 | 1.17 | 1.1 | CCc1nc(N)nc(N)c1-c1ccc(Cl)cc1 [Pyrimethamine] | – |
| 1.12 | 1.12 | 1.12 | 1.12 | O=C(c1ccc(OCCN2CCCCC2)cc1)c1c(-c2ccc(O)cc2)sc2cc(O)ccc12 [Raloxifene] | – |
| 1.11 | 1.30 | 1.11 | 1.3 | COc1ccccc1OCC(O)CN1CCN(CC(=O)Nc2c(C)cccc2C)CC1 (stereo not drawn) [Ranolazine] | – |
| 1.46 | 1.46 | 1.46 | 1.46 | C#CCN[C@@H]1CCc2ccccc21 [Rasagiline (S), Rasagiline] | – |
| 5.18 | 17.96 | 5.18 | 17.96 | Cn1c(=O)c2c(ncn2CCCNCC(O)c2cc(O)cc(O)c2)n(C)c1=O (stereo not drawn) [Reproterol] | MATE1 ratio (MATE1; [4]): 5.2; MATE2K ratio (MATE2K; [4]): 17.9 |
| 1.61 | 1.08 | 1.61 | 1.08 | COC(=O)[C@H]1[C@H]2C[C@@H]3c4[nH]c5cc(OC)ccc5c4CCN3C[C@H]2C[C@@H](OC(=O)c2cc(OC)c(OC)c(OC)c2)[C@@H]1OC [Reserpine] | – |
| 1.39 | 1.17 | 1.39 | 1.17 | CN(CCN1CCC(OC(=O)Nc2ccccc2-c2ccccc2)CC1)C(=O)c1ccc(CN2CCC(C(N)=O)CC2)cc1 [Revefenacin] | – |
| 1.02 | 0.93 | 1.02 | 0.93 | CO[C@H]1/C=C/O[C@@]2(C)Oc3c(C)c(O)c4c(O)c(c(/C=N/N5CCN(C)CC5)c(O)c4c3C2=O)NC(=O)/C(C)=C\C=C\[C@H](C)[C@H](O)[C@@H](C)[C@@H](O)[C@@H](C)[C@H](OC(C)=O)[C@@H]1C [Rifampicin] | – |
| 3.71 | 2.03 | 3.71 | 2.03 | CNCc1ccc(-c2[nH]c3cc(F)cc4c3c2CCNC4=O)cc1 [Rucaparib] | – |
| 1.13 | 0.99 | 1.13 | 0.99 | N#CC[C@H](C1CCCC1)n1cc(-c2ncnc3[nH]ccc23)cn1 [Ruxolitinib] | – |
| 6.98 | 3.74 | 6.98 | 3.74 | CC(C)(C)NCC(O)c1ccc(O)c(CO)c1 [Salbutamol (R), Salbutamol] | MATE1 ratio in this study (MATE1; Table S1, 2.5 μM, 1 min): 6.98; MATE2K ratio in this study (MATE2K; Table S1, 2.5 μM, 1 min): 3.74 |
| 8.88 | 5.09 | 8.88 | 5.09 | CC(C)(C)NCC(O)c1ccc(O)c(CO)c1 [Salbutamol (S), Salbutamol] | MATE1 ratio in this study (MATE1; Table S1, 2.5 μM, 1 min): 8.88; MATE2K ratio in this study (MATE2K; Table S1, 2.5 μM, 1 min): 5.09 |
| 7.94 | 3.73 | 7.94 | 3.73 | CC(C)(C)NCC(O)c1ccc(O)c(CO)c1 (stereo not drawn) [Salbutamol] | MATE1 ratio in this study (MATE1; Table S1, 2.5 μM, 1 min): 7.94; MATE2K ratio in this study (MATE2K; Table S1, 2.5 μM, 1 min): 3.73 |
| 1.78 | 1.17 | 1.78 | 1.17 | OCc1cc(C(O)CNCCCCCCOCCCCc2ccccc2)ccc1O (stereo not drawn) [Salmeterol] | – |
| 1.28 | 1.10 | 1.28 | 1.1 | CN[C@H]1CC[C@@H](c2ccc(Cl)c(Cl)c2)c2ccccc21 [Sertraline] | – |
| 0.83 | 1.31 | 0.83 | 1.31 | C[N+]1(C)CCC[C@H]1C(=O)[O-] [Stachydrine] | – |
| 0.54 | 1.38 | 0.54 | 1.38 | C[N+](C)(C)C[C@@H](CC(=O)[O-])OC(=O)CCC(=O)O [Succinylcarnitine] | – |
| – | – | 1.03 | 1.1 | Cn1nnc2c(C(N)=O)ncn2c1=O [Temozolomide] | – |

Continued, compound first:

| Compound | MATE1 ratio (MATE1; [1]) | MATE2K ratio (MATE2K; [1]) | MATE1 (MATE1; [2]) | MATE2 (MATE2K; [3]) | also measured |
| --- | --- | --- | --- | --- | --- |
| CN1CCN(CC(=O)N2c3ccccc3C(=O)Nc3cccnc32)CC1 [Pirenzepine] | 2.80 | 1.36 | – | – | – |
| CC(=O)Nc1ccc(OCC(O)CNC(C)C)cc1 (stereo not drawn) [Practolol] | 21.52 | 8.46 | – | – | – |
| OC(CCN1CCCCC1)(c1ccccc1)c1ccccc1 [Pridinol] | 1.18 | 1.27 | – | – | – |
| CC(C)[N+](C)(CCOC(=O)C1c2ccccc2Oc2ccccc21)C(C)C [Propantheline] | 10.16 | 5.77 | 10.16 | 5.77 | – |
| CC(C)c1cccc(C(C)C)c1O [Propofol] | – | – | – | – | MATE1 (MATE1): 0.64; MATE1 ratio (MATE1): 0.64; MATE2 (MATE2K): 0.8; MATE2K ratio (MATE2K): 0.80 |
| CCCCC[C@H](O)/C=C/[C@H]1[C@H](O)CC(=O)[C@@H]1C/C=C\CCCC(=O)O [Prostaglandin E2] | – | – | – | – | MATE1 (MATE1): 1.35; MATE1 ratio (MATE1): 1.35; MATE2 (MATE2K): 1.21; MATE2K ratio (MATE2K): 1.21 |
| CCCCC[C@H](O)/C=C/[C@@H]1[C@@H](C/C=C\CCCC(=O)O)[C@@H](O)C[C@H]1O [Prostaglandin F2alpha] | 1.41 | 0.92 | 1.41 | 0.92 | – |
| NCCCCN [Putrescine] | 0.36 | 0.48 | 0.36 | 0.48 | – |
| Br.Cc1ncc(C[n+]2cccc(CCO)c2C)c(N)n1.[Br-] [Pyrithiamine] | 20.40 | 7.32 | 20.4 | 7.32 | – |
| CC(CCc1ccc(O)cc1)NCC(O)c1ccc(O)cc1 (stereo not drawn) [Ractopamine] | – | – | – | – | MATE1 (MATE1): 4.56; MATE1 ratio (MATE1): 4.56; MATE2 (MATE2K): 1.4; MATE2K ratio (MATE2K): 1.40 |
| CCN1CCC[C@H]1CNC(=O)c1c(OC)ccc(Br)c1OC [Remoxipride] | 1.19 | 1.21 | 1.19 | 1.21 | – |
| CN(C)CCc1c[nH]c2ccc(Cn3cncn3)cc12 [Rizatriptan] | 6.63 | 3.35 | 6.63 | 3.35 | – |
| COc1cc2c(cc1OC)[C@H](C)NCC2 [Salsolidine] | – | – | – | – | MATE1 (MATE1): 1.24; MATE1 ratio (MATE1): 1.24; MATE2 (MATE2K): 1.46; MATE2K ratio (MATE2K): 1.46 |
| CNCC(=O)O [Sarcosine] | 0.76 | 1.01 | 0.76 | 1.01 | – |
| CCN(CC)CCNC(=O)c1ccc(NS(C)(=O)=O)cc1 [Sematilide] | 19.10 | 6.42 | 19.1 | 6.42 | – |
| NCCc1c[nH]c2ccc(O)cc12 [Serotonin] | 12.11 | – | 12.11 | – | MATE2 (MATE2K): 2.26; MATE2K ratio (MATE2K): 2.26 |
| C1CCN2C[C@@H]3C[C@@H](CN4CCCC[C@@H]34)[C@H]2C1 [Sparteine (+), Sparteine] | – | – | – | – | MATE1 (MATE1): 1.62; MATE1 ratio (MATE1): 1.62; MATE2 (MATE2K): 1.31; MATE2K ratio (MATE2K): 1.31 |
| C1CCN2C[C@H]3C[C@H](CN4CCCC[C@@H]34)[C@H]2C1 [Sparteine (-), Sparteine] | – | – | – | – | MATE1 (MATE1): 2.12; MATE1 ratio (MATE1): 2.12; MATE1 ratio in this study (MATE1): 2.12; MATE2 (MATE2K): 1.66; MATE2K ratio (MATE2K): 1.66; MATE2K ratio in this study (MATE2K): 1.66 |
| NCCCCNCCCN [Spermidine] | 0.63 | 0.55 | 0.63 | 0.55 | – |
| NCCCNCCCCNCCCN [Spermine] | 1.13 | 1.25 | 1.13 | 1.25 | – |
| CNCC(O)c1ccc(O)cc1.CNCC(O)c1ccc(O)cc1.O=C(O)C(O)C(O)C(=O)O (stereo not drawn) [Synephrine] | – | – | – | – | MATE1 (MATE1): 6.5; MATE2 (MATE2K): 1.04 |
